Five molecules from ChEMBL document CHEMBL5465560, “Selectivity Literature for EUbOPEN Chemogenomic Library” (2024) can be followed below.

Experiment [1] has as its target T1, Beta-adrenergic receptor kinase 1 (Homo sapiens) (UniProt P25098).
T1 sequence (whole entry): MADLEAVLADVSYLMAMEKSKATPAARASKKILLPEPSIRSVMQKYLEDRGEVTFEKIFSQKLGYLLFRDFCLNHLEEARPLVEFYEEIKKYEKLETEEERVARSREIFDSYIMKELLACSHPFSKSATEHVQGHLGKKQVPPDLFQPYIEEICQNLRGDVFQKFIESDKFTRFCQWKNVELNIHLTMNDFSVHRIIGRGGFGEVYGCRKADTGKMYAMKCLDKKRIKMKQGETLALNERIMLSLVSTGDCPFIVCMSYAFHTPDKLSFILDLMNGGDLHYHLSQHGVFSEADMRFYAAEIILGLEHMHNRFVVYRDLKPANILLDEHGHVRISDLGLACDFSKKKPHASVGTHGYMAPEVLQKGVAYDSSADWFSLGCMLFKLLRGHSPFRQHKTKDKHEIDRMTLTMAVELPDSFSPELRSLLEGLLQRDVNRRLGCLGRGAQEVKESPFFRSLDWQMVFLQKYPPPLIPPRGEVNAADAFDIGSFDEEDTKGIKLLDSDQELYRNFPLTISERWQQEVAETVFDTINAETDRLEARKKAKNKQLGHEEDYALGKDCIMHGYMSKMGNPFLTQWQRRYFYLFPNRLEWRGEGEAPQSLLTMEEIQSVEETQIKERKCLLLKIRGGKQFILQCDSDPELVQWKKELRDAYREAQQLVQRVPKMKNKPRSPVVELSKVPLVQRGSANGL
In words: Selectivity interaction (SelectScreen profiling (Invitrogen)) EUB0000607a ADRBK1. The settings on record: at 2 µM.

Experiment [2] deals with Ephrin type-A receptor 5 (Homo sapiens) (UniProt P54756). Briefly: Selectivity interaction (KinomeScan (DiscoverX)) EUB0001079a EPHA5. The conditions noted are these: at 1 µM.
Chain of Ephrin type-A receptor 5 (Homo sapiens) (P54756 whole entry): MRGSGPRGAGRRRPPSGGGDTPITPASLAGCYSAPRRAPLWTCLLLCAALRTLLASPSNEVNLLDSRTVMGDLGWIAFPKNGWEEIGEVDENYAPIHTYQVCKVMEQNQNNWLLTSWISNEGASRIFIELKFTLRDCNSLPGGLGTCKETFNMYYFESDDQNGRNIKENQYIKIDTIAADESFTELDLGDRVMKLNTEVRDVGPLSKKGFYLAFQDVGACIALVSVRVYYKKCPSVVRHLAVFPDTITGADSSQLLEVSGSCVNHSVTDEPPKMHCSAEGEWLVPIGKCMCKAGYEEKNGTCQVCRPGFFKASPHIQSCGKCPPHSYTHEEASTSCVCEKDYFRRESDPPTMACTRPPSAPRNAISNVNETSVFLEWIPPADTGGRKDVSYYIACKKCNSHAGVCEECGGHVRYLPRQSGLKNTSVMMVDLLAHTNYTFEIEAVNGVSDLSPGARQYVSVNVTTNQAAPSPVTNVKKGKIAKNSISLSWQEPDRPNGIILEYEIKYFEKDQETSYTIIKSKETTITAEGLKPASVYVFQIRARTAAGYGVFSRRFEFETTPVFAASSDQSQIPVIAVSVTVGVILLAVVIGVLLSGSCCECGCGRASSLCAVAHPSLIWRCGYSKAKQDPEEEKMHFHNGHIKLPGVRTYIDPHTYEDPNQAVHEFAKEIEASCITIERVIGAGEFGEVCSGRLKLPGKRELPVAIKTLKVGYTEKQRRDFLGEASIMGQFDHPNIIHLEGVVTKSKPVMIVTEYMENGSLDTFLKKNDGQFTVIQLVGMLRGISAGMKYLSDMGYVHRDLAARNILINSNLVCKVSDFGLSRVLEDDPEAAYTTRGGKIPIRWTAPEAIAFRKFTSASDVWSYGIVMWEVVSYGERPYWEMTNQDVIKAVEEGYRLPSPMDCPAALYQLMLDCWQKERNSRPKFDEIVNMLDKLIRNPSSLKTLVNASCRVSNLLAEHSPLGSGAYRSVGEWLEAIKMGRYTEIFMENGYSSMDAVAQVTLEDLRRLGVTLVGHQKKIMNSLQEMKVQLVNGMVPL
Experiment [3] has as its target T2, Tyrosine-protein kinase JAK3 (Homo sapiens) (UniProt P52333).
T2 sequence (whole entry): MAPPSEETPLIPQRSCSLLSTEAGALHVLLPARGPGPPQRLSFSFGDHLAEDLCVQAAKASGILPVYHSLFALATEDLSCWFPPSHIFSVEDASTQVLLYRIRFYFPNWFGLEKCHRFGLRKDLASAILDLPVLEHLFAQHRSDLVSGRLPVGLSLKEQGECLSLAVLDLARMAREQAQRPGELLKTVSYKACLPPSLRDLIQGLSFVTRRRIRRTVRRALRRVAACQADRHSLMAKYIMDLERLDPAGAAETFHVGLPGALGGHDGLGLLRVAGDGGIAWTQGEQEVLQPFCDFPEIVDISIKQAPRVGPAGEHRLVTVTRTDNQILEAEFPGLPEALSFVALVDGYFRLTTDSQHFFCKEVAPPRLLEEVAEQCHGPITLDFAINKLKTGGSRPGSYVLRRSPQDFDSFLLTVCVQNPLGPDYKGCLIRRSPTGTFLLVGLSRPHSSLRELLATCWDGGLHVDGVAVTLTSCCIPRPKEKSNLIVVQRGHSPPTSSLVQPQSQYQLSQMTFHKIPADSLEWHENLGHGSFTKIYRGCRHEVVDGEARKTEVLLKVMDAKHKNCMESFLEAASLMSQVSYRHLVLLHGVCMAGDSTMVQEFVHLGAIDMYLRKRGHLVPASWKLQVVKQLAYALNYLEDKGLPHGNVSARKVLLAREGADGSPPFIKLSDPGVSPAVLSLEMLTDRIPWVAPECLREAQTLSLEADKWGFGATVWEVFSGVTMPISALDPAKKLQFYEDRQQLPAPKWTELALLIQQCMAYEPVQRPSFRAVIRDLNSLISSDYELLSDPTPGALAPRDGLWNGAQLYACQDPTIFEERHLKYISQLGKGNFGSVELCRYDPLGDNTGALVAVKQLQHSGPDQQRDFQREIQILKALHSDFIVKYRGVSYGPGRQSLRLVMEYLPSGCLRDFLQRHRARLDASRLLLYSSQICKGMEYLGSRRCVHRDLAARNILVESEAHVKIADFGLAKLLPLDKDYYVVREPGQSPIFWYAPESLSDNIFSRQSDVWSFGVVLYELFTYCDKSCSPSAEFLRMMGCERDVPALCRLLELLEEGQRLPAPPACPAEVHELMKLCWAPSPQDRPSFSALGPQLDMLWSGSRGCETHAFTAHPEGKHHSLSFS
Briefly: Selectivity interaction (ActivX KiNativ screen (ex vivo kinase selectivity in human PBMCs)) EUB0001619a JAK3. The format is cell-based. The conditions noted are these: PBMC, at 1 µM.

The target of experiment [4] is Casein kinase I isoform gamma-1 (Homo sapiens) (UniProt Q9HCP0). In words: Selectivity interaction (Kinase panel (Invitrogen)) EUB0000639a CSNK1G1. The conditions noted are these: at 200 nM.
Chain of Casein kinase I isoform gamma-1 (Homo sapiens) (Q9HCP0 whole entry, looked up, canonical isoform): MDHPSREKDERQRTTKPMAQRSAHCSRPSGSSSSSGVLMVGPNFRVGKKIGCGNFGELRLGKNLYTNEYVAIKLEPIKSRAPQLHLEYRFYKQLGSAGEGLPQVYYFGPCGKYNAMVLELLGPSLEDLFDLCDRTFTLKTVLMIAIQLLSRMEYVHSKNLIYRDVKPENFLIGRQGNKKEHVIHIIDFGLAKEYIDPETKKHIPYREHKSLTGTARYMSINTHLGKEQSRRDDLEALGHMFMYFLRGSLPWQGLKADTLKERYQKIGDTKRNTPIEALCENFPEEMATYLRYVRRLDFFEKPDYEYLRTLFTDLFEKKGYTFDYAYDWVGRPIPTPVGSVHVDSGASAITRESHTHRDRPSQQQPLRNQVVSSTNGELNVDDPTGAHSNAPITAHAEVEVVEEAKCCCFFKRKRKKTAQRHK
For experiment [5], the target named is T3, Serine/threonine-protein kinase ULK1 (Homo sapiens) (UniProt O75385).
T3 sequence (whole entry): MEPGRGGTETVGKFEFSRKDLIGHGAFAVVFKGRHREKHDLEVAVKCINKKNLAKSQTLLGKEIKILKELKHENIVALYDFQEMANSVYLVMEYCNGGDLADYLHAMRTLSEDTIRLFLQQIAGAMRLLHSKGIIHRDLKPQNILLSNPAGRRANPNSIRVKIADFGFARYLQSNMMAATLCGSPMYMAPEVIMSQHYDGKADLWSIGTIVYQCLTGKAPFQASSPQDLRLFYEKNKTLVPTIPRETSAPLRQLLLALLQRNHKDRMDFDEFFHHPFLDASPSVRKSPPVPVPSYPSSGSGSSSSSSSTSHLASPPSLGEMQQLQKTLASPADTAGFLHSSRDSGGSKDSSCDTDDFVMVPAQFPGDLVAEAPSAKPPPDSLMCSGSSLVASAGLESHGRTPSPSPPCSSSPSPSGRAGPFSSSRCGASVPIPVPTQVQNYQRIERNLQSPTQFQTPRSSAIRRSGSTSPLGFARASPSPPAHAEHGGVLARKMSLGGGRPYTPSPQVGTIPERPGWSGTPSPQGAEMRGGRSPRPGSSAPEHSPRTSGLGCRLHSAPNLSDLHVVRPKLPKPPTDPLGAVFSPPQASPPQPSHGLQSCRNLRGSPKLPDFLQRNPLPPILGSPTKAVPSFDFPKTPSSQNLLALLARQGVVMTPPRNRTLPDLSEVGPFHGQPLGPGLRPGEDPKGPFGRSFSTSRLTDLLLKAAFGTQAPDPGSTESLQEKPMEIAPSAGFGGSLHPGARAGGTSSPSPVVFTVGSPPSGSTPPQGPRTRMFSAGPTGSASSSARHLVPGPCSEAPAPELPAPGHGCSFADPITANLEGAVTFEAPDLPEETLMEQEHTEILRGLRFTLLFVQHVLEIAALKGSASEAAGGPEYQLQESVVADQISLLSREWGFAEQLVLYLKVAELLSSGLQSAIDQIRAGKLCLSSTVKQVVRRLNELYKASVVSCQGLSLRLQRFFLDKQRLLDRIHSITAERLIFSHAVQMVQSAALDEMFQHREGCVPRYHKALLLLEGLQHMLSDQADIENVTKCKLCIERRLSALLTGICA
Briefly: Selectivity interaction (KinomeScan (DiscoverX)) EUB0000045b ULK1.

Molecules are shown by their SMILES.

For `CNC(=O)Nc1ccc(-c2nc(N3CC4CCC(C3)O4)c3cnn(C4CCC5(CC4)OCCO5)c3n2)cc1`, the % of inhibition in experiment [1] is -1%.

On to `Nc1cnc(N2CCc3cc(S(=O)(=O)Nc4c(F)cc(Cl)cc4F)cc(N4CCCC4=O)c32)nc1` [TP-020n], for which, in experiment [2], the % of control was found to be 100%.

Consider `N#Cc1cccc(-c2c[nH]c3ncnc(N4CCOCC4)c23)c1`, for which the % of inhibition in experiment [3] was found to be 6%.

Take `CC[C@@H]1[C@H](F)C(=O)N[C@@H]1COc1nccc2cc(C(N)=O)c(OC)cc12` [ZIMLOVISERTIB]: in experiment [4], the % of inhibition amounted to 69.1%.

Regarding `C=CC(=O)Nc1cc(-n2c(=O)ccc3cnc4ccc(-c5ccc(NS(C)(=O)=O)cc5)cc4c32)ccc1C`, the % of control in experiment [5] (at 1 µM) was 84%; in experiment [5] (at 10 µM), 100%.
